Data published in patent US10961202B2, “Bis-benzimidazole compounds and methods of using the same” (THE SCRIPPS RESEARCH INSTITUTE, priority 2017, dated 2021).
Where two headings read alike, the source gives them in different places.

What was measured:
r(CUG)12-MBNL1 complex = assay: Inhibition of the r(CUG)12-MBNL1 complex measured by TR-FRET; type: biochemical; details: 80 nM RNA, 60 nM MBNL1-His6
[1] = test system: MBNL1 exon 5 inclusion in DM1 myotubes; assay: Myotube splicing rescue assay (MBNL1 exon 5 inclusion); type: cell-based, human; details: 48-hour incubation
HSALR strain 20b mice = assay: DM1 mouse efficacy study: RT-PCR of MBNL1-dependent splicing targets in gastrocnemius; type: in vivo; details: sc, subcutaneous
[2] = 7.5 mg/kg qod 8 doses, read-out: Mbnl1 exon 5 splicing rescue %
[3] = 7.5 mg/kg qod 8 doses, read-out: Serca1 exon 22 splicing rescue %
[4] = 7.5 mg/kg qod 8 doses, read-out: Zasp exon 11 splicing rescue %
[5] = 7.5 mg/kg qod 5 doses, read-out: Clcn1 exon 7a splicing rescue %
[6] = 7.5 mg/kg qod 5 doses, read-out: Mbnl1 exon 5 splicing rescue %
[7] = 7.5 mg/kg qod 5 doses, read-out: Serca1 exon 22 splicing rescue %
[8] = 7.5 mg/kg qod 8 doses, read-out: Clcn1 exon 7a splicing rescue %

CN(C)CCCOc1ccc(-c2nc3cc(-c4ccc5[nH]c(-c6ccc(OCCCN(C)C)cc6)nc5c4)ccc3[nH]2)cc1 [Compound 152]
IC50 (r(CUG)12-MBNL1 complex; Table L): 10.7 µM
MBNL1 % splicing rescue at 1 μM [1]: 85.4%
MBNL1 % splicing rescue at 10 μM [1]: 79.8%
percent splicing rescue at 7.5 mg/kg (HSALR strain 20b mice; [2]): 40.6%
percent splicing rescue at 7.5 mg/kg (HSALR strain 20b mice; [3]): -19.8%
percent splicing rescue at 7.5 mg/kg (HSALR strain 20b mice; [4]): 46.1%

CN(C)CCCSc1ccc2nc(-c3ccc(-c4nc5ccc(SCCCN(C)C)cc5[nH]4)cc3)[nH]c2c1 [Compound 60, 3,3′-((2,2′-(1,4-phenylene)bis(1H-benzo[d]imidazole-6,2-diyl))bis(sulfanediyl))bis(N,N-dimethylpropan-1-amine)]
IC50 (r(CUG)12-MBNL1 complex; Table L): 40 µM
MBNL1 % splicing rescue at 1 μM [1]: 18.9%
MBNL1 % splicing rescue at 10 μM [1]: 80.9%
percent splicing rescue at 7.5 mg/kg (HSALR strain 20b mice; [5]): 87.7%
percent splicing rescue at 7.5 mg/kg (HSALR strain 20b mice; [6]): 95.3%
percent splicing rescue at 7.5 mg/kg (HSALR strain 20b mice; [7]): 86%
percent splicing rescue at 7.5 mg/kg (HSALR strain 20b mice; 7.5 mg/kg qod 5 doses, read-out: Zasp exon 11 splicing rescue %): 88.3%

Nc1ccc2nc(-c3ccc(-c4nc5ccc(NC6=NCCN6C6=NCCN6)cc5[nH]4)cc3)[nH]c2c1 [Compound 75, 2-(4-(6-amino-1H-benzo[d]imidazol-2-yl)phenyl)-N-(4,4′,5,5′-tetrahydro-1H-[1,2′-biimidazol]-2-yl)-1H-benzo[d]imidazol-6-amine]
IC50 (r(CUG)12-MBNL1 complex; Table L): 3.2 µM
MBNL1 % splicing rescue at 10 μM [1]: 0.0%
percent splicing rescue at 30 mg/kg (HSALR strain 20b mice; 30 mg/kg qd 7 doses, read-out: Clcn1 exon 7a splicing rescue %): 39.4%
percent splicing rescue at 30 mg/kg (HSALR strain 20b mice; 30 mg/kg qd 7 doses, read-out: Mbnl1 exon 5 splicing rescue %): 93.9%
percent splicing rescue at 30 mg/kg (HSALR strain 20b mice; 30 mg/kg qd 7 doses, read-out: Serca1 exon 22 splicing rescue %): 50%
percent splicing rescue at 30 mg/kg (HSALR strain 20b mice; 30 mg/kg qd 7 doses, read-out: Zasp exon 11 splicing rescue %): 95.6%

CN(C)CCCOc1ccc2nc(-c3ccc(-c4nc5ccc(OCCCN(C)C)cc5[nH]4)cc3)[nH]c2c1 [Compound 58, 3,3′-((2,2′-(1,4-phenylene)bis(1H-benzo[d]imidazole-6,2-diyl))bis(oxy))bis(N,N-dimethylpropan-1-amine)]
IC50 (r(CUG)12-MBNL1 complex; Table L): 19.8 µM
MBNL1 % splicing rescue at 1 μM [1]: 11.0%
MBNL1 % splicing rescue at 10 μM [1]: 79.1%
percent splicing rescue at 7.5 mg/kg (HSALR strain 20b mice; [8]): 68.3%
percent splicing rescue at 7.5 mg/kg (HSALR strain 20b mice; [2]): 80.2%
percent splicing rescue at 7.5 mg/kg (HSALR strain 20b mice; [3]): 90.5%
percent splicing rescue at 7.5 mg/kg (HSALR strain 20b mice; [4]): 102%

CN(C)CCCOc1ccc(-c2nc3cc(-c4ccc5[nH]c(-c6ccc(C(=O)NCCN(C)C)cc6)nc5c4)ccc3[nH]2)cc1 [Compound 346]
IC50 (r(CUG)12-MBNL1 complex; Table M): 6.45 µM
MBNL1 % splicing rescue at 1 μM [1]: 79.9%
MBNL1 % splicing rescue at 10 μM [1]: 74.8%
percent splicing rescue at 7.5 mg/kg (HSALR strain 20b mice; [5]): 105%
percent splicing rescue at 7.5 mg/kg (HSALR strain 20b mice; [6]): 11.8%
percent splicing rescue at 7.5 mg/kg (HSALR strain 20b mice; [7]): 22.3%

CN(C)CCOc1ccc(-c2nc3cc(-c4ccc5[nH]c(-c6ccc(OCCN(C)C)cc6)nc5c4)ccc3[nH]2)cc1 [Compound 153]
IC50 (r(CUG)12-MBNL1 complex; Table L): 29 µM
MBNL1 % splicing rescue at 1 μM [1]: 82.1%
MBNL1 % splicing rescue at 10 μM [1]: 106.1%
percent splicing rescue at 7.5 mg/kg (HSALR strain 20b mice; [8]): 48.4%
percent splicing rescue at 7.5 mg/kg (HSALR strain 20b mice; [2]): 40.8%
percent splicing rescue at 7.5 mg/kg (HSALR strain 20b mice; [3]): 34%
percent splicing rescue at 7.5 mg/kg (HSALR strain 20b mice; [4]): 59.7%

CN1CCN(Cc2ccc(-c3nc4cc(-c5ccc6[nH]c(-c7ccc(CN8CCN(C)CC8)cc7)nc6c5)ccc4[nH]3)cc2)CC1 [Compound 337]
IC50 (r(CUG)12-MBNL1 complex; Table M): 31.9 µM
MBNL1 % splicing rescue at 1 μM [1]: 57.2%
MBNL1 % splicing rescue at 10 μM [1]: 73.3%

O=C(NCCN1CCNCC1)c1ccc2nc(-c3ccc(-c4nc5ccc(C(=O)NCCN6CCNCC6)cc5[nH]4)cc3)[nH]c2c1 [Compound 47, 2,2′-(1,4-phenylene)bis(N-(2-(piperazin-1-yl)ethyl)-1H-benzo[d]imidazole-6-carboxamide)]
IC50 (r(CUG)12-MBNL1 complex; Table L): 6.8 µM
MBNL1 % splicing rescue at 10 μM [1]: 12.8%

C[N+](C)(C)CCOC(=O)c1ccc2nc(-c3ccc(-c4nc5ccc(C(=O)OCC[N+](C)(C)C)cc5[nH]4)cc3)[nH]c2c1 [Compound 55, 2,2′-((2,2′-(1,4-phenylene)bis(1H-benzo[d]imidazole-6,6′-carbonyl))bis(oxy))bis(N,N,N-trimethylethanaminium) chloride]
IC50 (r(CUG)12-MBNL1 complex; Table L): 4.2 µM
MBNL1 % splicing rescue at 10 μM [1]: 12.0%

CN(C)CCNC(=O)c1ccc2nc(-c3ccc(-c4nc5ccc(C(=O)NCCN(C)C)cc5[nH]4)cc3)[nH]c2c1 [Compound 16, 2,2′-(1,4-phenylene)bis(N-(2-(dimethylamino)ethyl)-1H-benzo[d]imidazole-6-carboxamide)]
IC50 (r(CUG)12-MBNL1 complex; Table L): 6.2 µM
MBNL1 % splicing rescue at 10 μM [1]: −4.3%

O=C(NCCN1CCCCC1)c1ccc2nc(-c3ccc(-c4nc5ccc(C(=O)NCCN6CCCCC6)cc5[nH]4)cc3)[nH]c2c1 [Compound 41, 2,2′-(1,4-phenylene)bis(N-(2-(piperidin-1-yl)ethyl)-1H-benzo[d]imidazole-6-carboxamide)]
IC50 (r(CUG)12-MBNL1 complex; Table L): 6.6 µM
MBNL1 % splicing rescue at 1 μM [1]: 43.7%
MBNL1 % splicing rescue at 10 μM [1]: 59.1%

CCN(CC)CCNC(=O)c1ccc2nc(-c3ccc(-c4nc5ccc(C(=O)NCCN(CC)CC)cc5[nH]4)cc3)[nH]c2c1 [Compound 33]
IC50 (r(CUG)12-MBNL1 complex; Table L): 8.1 µM
MBNL1 % splicing rescue at 10 μM [1]: 16.4%

CN(C)CCCOc1ccc2nc(-c3ccc(-c4nc5ccc(C(=O)NCCNC(=N)N)cc5[nH]4)cc3)[nH]c2c1 [Compound 264, 2-(4-(6-(3-(dimethylamino)propoxy)-1H-benzo[d]imidazol-2-yl)phenyl)-N-(2-guanidinoethyl)-1H-benzo[d]imidazole-6-carboxamide]
IC50 (r(CUG)12-MBNL1 complex; Table M): 6.03 µM
MBNL1 % splicing rescue at 10 μM [1]: −23.5%

c1cc(-c2nc3ccc(N4CCNCC4)cc3[nH]2)ccc1-c1nc2ccc(N3CCNCC3)cc2[nH]1 [Compound 150]
IC50 (r(CUG)12-MBNL1 complex; Table L): 29.6 µM
MBNL1 % splicing rescue at 10 μM [1]: 41.0%

c1ccc(COc2ccc(-c3nc4cc(-c5ccc6[nH]c(-c7ccc(OCc8ccccn8)cc7)nc6c5)ccc4[nH]3)cc2)nc1 [Compound 352]
IC50 (r(CUG)12-MBNL1 complex; Table M): 25.8 µM
MBNL1 % splicing rescue at 1 μM [1]: 3.1%
MBNL1 % splicing rescue at 10 μM [1]: 9.6%

CN(C)CCNC(=O)c1ccc(-c2nc3cc(-c4ccc5[nH]c(-c6ccc(C(=O)NCCN(C)C)cc6)nc5c4)ccc3[nH]2)cc1 [Compound 108, 4,4′-(1H,1′H-[5,5′-bibenzo[d]imidazole]-2,2′-diyl)bis(N-(2-(dimethylamino)ethyl)benzamide)]
IC50 (r(CUG)12-MBNL1 complex; Table L): 13 µM
MBNL1 % splicing rescue at 1 μM [1]: 0.0%
MBNL1 % splicing rescue at 10 μM [1]: 63.4%
percent splicing rescue at 30 mg/kg (HSALR strain 20b mice; 30 mg/kg qod 8 doses, read-out: Clcn1 exon 7a splicing rescue %): 32.5%
percent splicing rescue at 30 mg/kg (HSALR strain 20b mice; 30 mg/kg qod 8 doses, read-out: Mbnl1 exon 5 splicing rescue %): 57.4%
percent splicing rescue at 30 mg/kg (HSALR strain 20b mice; 30 mg/kg qod 8 doses, read-out: Serca1 exon 22 splicing rescue %): 59.1%
percent splicing rescue at 30 mg/kg (HSALR strain 20b mice; 30 mg/kg qod 8 doses, read-out: Zasp exon 11 splicing rescue %): 50.1%

O=C(NCCN1CCCCC1)c1ccc2nc(-c3ccc(-c4nc5ccc(C(=O)NCCN6CCCCC6)cc5[nH]4)c(F)c3)[nH]c2c1 [Compound 174]
IC50 (r(CUG)12-MBNL1 complex; Table M): 4.32 µM
MBNL1 % splicing rescue at 1 μM [1]: 5.2%
MBNL1 % splicing rescue at 10 μM [1]: 1.9%

N=C(N)NCCNC(=O)c1ccc2nc(-c3ccc(-c4nc5ccc(C(=O)NCCNC(=N)N)cc5[nH]4)cc3)[nH]c2c1 [Compound 38]
IC50 (r(CUG)12-MBNL1 complex; Table L): 2.6 µM
MBNL1 % splicing rescue at 10 μM [1]: 0.0%

COc1cc(-c2nc3ccc(OCCCN(C)C)cc3[nH]2)c(OCc2ccccc2)cc1-c1nc2cc(OCCCN(C)C)ccc2[nH]1 [Compound 307, 3-((2-(2-(benzyloxy)-4-(5-(3-(dimethylamino)propoxy)-1H-benzo[d]imidazol-2-yl)-5-methoxyphenyl)-1H-benzo[d]imidazol-6-yl)oxy)-N,N-dimethylpropan-1-amine]
IC50 (r(CUG)12-MBNL1 complex; Table M): 15.8 µM
MBNL1 % splicing rescue at 10 μM [1]: 18.1%

CN(C)CCCCCOc1ccc2nc(-c3ccc(-c4nc5ccc(OCCCCCN(C)C)cc5[nH]4)cc3)[nH]c2c1 [Compound 192]
IC50 (r(CUG)12-MBNL1 complex; Table M): 12.9 µM
MBNL1 % splicing rescue at 10 μM [1]: 111.7%

CC(C)N(CCNC(=O)c1ccc2nc(-c3ccc(-c4nc5ccc(C(=O)NCCN(C(C)C)C(C)C)cc5[nH]4)cc3)[nH]c2c1)C(C)C [Compound 34]
IC50 (r(CUG)12-MBNL1 complex; Table L): 14.5 µM
MBNL1 % splicing rescue at 1 μM [1]: 20.8%

CCOc1cc(-c2nc3cc(OCCCN(C)C)ccc3[nH]2)c(OCC)cc1-c1nc2cc(OCCCN(C)C)ccc2[nH]1 [Compound 314, (3-[[2-(4-[5-[3-(dimethylamino)propoxy]-1H-1,3-benzodiazol-2-yl]-2,5-diethoxyphenyl)-1H-1,3-benzodiazol-5-yl]oxy]propyl)dimethylamine]
IC50 (r(CUG)12-MBNL1 complex; Table M): 19.8 µM
MBNL1 % splicing rescue at 10 μM [1]: 22.5%

CN(C)CCCOc1cc2nc(-c3ccc(-c4nc5cc(Cl)c(OCCCN(C)C)cc5[nH]4)cc3)[nH]c2cc1Cl [Compound 304, (3-[[6-chloro-2-(4-[5-chloro-6-[3-(dimethylamino)propoxy]-1H-1,3-benzodiazol-2-yl]phenyl)-1H-1,3-benzodiazol-5-yl]oxy]propyl)dimethylamine]
IC50 (r(CUG)12-MBNL1 complex; Table M): 5.8 µM
MBNL1 % splicing rescue at 10 μM [1]: −42.3%
